Results as given in patent US8586307B2, “Methods for diagnosing epigenetic, transgenerational effects of environmental toxicants on mammalian germ-lines and treating associated diseases” (priority 2005, dated 2013).

Experiments:
[1] = system: F1 generation testis; settings: cited from earlier work
[2] = system: E16 testis; assay: Microarray gene expression analysis of embryonic testis; assay type: in vivo, rat; settings: F1 and F2 generation E16 testis vs control
Source text: Microarray analysis: RNA was collected from embryonic day […] 16 (E16) testis from control and E16 vinclozolin F1 and F2 generation animals as described above for Example I. RNA was hybridized to the Affymetrix (Affymetrix, Santa Clara, Calif.) rat 230A gene chip. The Genomics Core in the Center for Reproductive Biology at Washington State University, Pullman, Wash., performed the analysis as previously described, and incorporated by reference herein [149, 150]. Briefly, RNA from the cells was reverse transcribed into cDNA then was transcribed into biotin labeled RNA. Biotin labeled RNA was then hybridized to the Affymetrix rat 230A gene chips. Each gene set is composed of 16 pairs of […] oligonucleotides, with one sense strand specific for the gene and one anti-sense strand with single point mutations for use as a comparative negative control. Biotinalated RNA was then visualized by labeling with phycoerythrin-coupled avidin. The microarray was scanned on a Hewlett-Packard Gene Array Scanner (Hewlett-Packard Co., Palo Alto, Calif.).
Bioinformatics: The majority of the data analysis was performed using the Affymetrix Microarray Suite Software (Affymetrix, Santa Clara, Calif.). […] Basic expression analysis was determined by accessing the Affymetrix database through the Microarray Suite Software. […]

[3] = General observations (body weight, litter size, serum testosterone, other tissues); assay type: in vivo, rat
Method: (§1) In Vivo Procedures: Gestating outbred Sprague-Dawley and inbred Fisher mother rats from timed, pregnant colonies housed at the Washington State University Vivarium, were given intraperitoneal injections of vinclozolin (100 mg/kg/day) and methoxychlor (200 mg/kg/day) from embryonic day 8-15 (E8-E15, sperm positive vaginal smear date=E0) of gestation (F0 generation) as previously described. Gestating mothers administered vehicle, sesame oil or DMSO, served as controls. At least 6 lines (individual F0 injected females) were generated for controls and treated groups for these analyses. Male rats from control and treated groups were collected at P60-P180 for analyses. F1 treated males were bred to F1 treated females to generate the F2 treated generation and F2 treated males were bred to F2 treated females to generate the F3 generation and the F3 were bred in the same manner to generate the F4 generation. Rats for the control groups were bred in the same manner for all the generations. No inbreeding or sibling crosses were generated. The outcross group (VOC) were generated by breeding the F2 treated males with wild-type females (total of 6 litters) and reverse outcross group (RVOC) was generated by breeding F2 treated females with wild-type males (total of 3 litters). Control (n=4) and treated (n=4) male offspring from the F1 generation from Fisher strain rats were collected at P6 for DNA methylation analysis, see below. All procedures have been approved by the Washington State University Animal Care Committee. The number of animals used for replicates in the experiments (i.e. n value) are as follows for vinclozolin treatment: F1 (control 11, treated 12); F2 (control 19, treated 30); F3 (control 19, treated 26); F4 (control 10, treated 17); VOC (18); and RVOC (6). For methoxychlor treatment animal number was for F1 (control 6, treated 9) and F2 (control 16, treated 22).

[4] = system: NCAM1; assay: Semi-quantitative PCR of NCAM1 expression in adult brain; assay type: in vivo, rat; settings: F3 generation males vs control
Method: The expression of one of the known genes nearest an altered methylation site identified candidate #1 (NCAM1), is primarily brain specific. An analysis of gene expression for NCAM in the brain was performed. Brains from adult control and vinclozolin F3 generation males were isolated, and RNA was prepared. Four control and five vinclozolin F3 generation animals were analyzed separately. […] This decreased expression of NCAM1 was quantitated, and over a 10-fold reduction in expression was observed between control and vinclozolin F3 generation males, FIG. 15C. Therefore, the hypermethylation of the candidate #1 site in sperm DNA was associated with a reduction in NCAM1 expression in the adult male brain, in vinclozolin F3 generation animals.

[5] = system: epididymal sperm; settings: rat, in vivo
Method: as §1, with “The number of animals used for replicates in the experiments (i.e. n value) are as follows for vinclozolin treatment: F1 (control 11, treated 12); F2 (control 19, treated 30); F3 (control 19, treated 26); F4 (control 10, treated 17); VOC (18); and RVOC (6). For methoxychlor treatment animal number was for F1 (control 6, treated 9) and F2 (control 16, treated 22).” left out
Sperm Motility and Concentration Analysis: Animals were sacrificed and cauda epididymal sperm motility was determined using cauda epididymal sperm. […] All the motile sperm including rapid progressive, slow progressive and non-progressive were counted according to WHO category. Percent ratio of the motile sperm to the total number of sperm including immotile sperm was calculated. Epididymal sperm count was determined using the same epididymis sample according to a previously described method with some modifications.

[6] = system: spermatogenic cells; assay: Spermatogenic cell apoptosis in testis sections (TUNEL) after transient embryonic exposure; settings: rat, in vivo
Method: as §1, with “For methoxychlor treatment animal number was for F1 (control 6, treated 9) and F2 (control 16, treated 22).” left out
Detection of Cell Apoptosis: To detect apoptotic cells in testis sections, the Fluorescien In Situ Cell Death Detection Kit (Roche Applied Science, Indianapolis, Ind.) was utilized. […] Fluorescent apoptotic cells were imaged on a confocal microscope and quantitation of number of apoptotic cells per testis cross section. […]

[7] = system: pregnant females; assay: Ovary and pregnancy outcomes in vinclozolin generation females; assay type: in vivo, rat; settings: preliminary data
Source text: The abnormal phenotype has similarities to pre-eclampsia that include death, severe anemia and blood cell defects, occurring in approximately 15% of all pregnancies in vinclozolin-generation females. Other disease states, as such as prostate abnormalities, tumor development, abnormal immune system activation and premature aging, may be induced by the epigenetic transgenerational actions of the endocrine disruptors.

[8] = system: male rats; settings: rat, in vivo
Method: as §1
Histology: Tissues were fixed in Bouin's (Amresco, Solon Ohio) and embedded in paraffin, and then sections stained with hematoxylin and eosin, according to standard procedures. The n=50 treated vinclozolin, n=42 controls.

## C=CC1(C)OC(=O)N(c2cc(Cl)cc(Cl)c2)C1=O (centres unmarked) [vinclozolin]
[1]; gestating mother exposed E8-E15, 100 or 200 mg/kg i.p. daily
  adult F1 generation testis phenotype: reduced spermatogenic capacity, increased spermatogenic cell apoptosis and decreased sperm number and motility
[1]; rat, in vivo
  effect on the F1 generation testis: no effect
[2]
  expression of Fadd, Pbm1b, Rps12 and Waspip: increased expression
  expression of ankyrin 28, Ncstn, Rab12 and Lrrn6a: reduced expression
[3]; all the animals
  serum testosterone levels: normal
[3]; rat, in vivo
  effect on total body weight: no effect
  gross abnormality in any other tissues examined: No gross abnormality
  litter size, newborn pup weights or testis weight per body weight: no change
[4]
  reduction in NCAM1 expression: > 10 fold
[5]; male
  sperm forward motility reduced: approximately 20%
  sperm numbers reduced: approximately 20%
[5]
  sperm number and motility in outcross (VOC) males: decrease
[6]; male
  males analyzed that had the increased spermatogenic cell apoptosis: Greater than 90%
[6]
  effect on the spermatogenic cells in reverse outcross (RVOC): no effect
  spermatogenic cell apoptosis in outcross (VOC) males: increase
[7]; F1, F2 and F3 generation pregnant females
  pregnancies with abnormal phenotype similar to pre-eclampsia (death, severe anemia, blood cell defects): approximately 15%
[7]
  effect on the female ovary: no major effect
[8]; male
  animals that developed a dramatic decrease in spermatogenic capacity: approximately 20%
  animals with infertility associated with small testis and severely reduced spermatogenesis: 4 animals
  transgenerational animals that developed complete infertility: 8%
[8]
  histology of the testis, control versus treated: similar
  infertility in outcrossed (VOC) males: increased infertility
  infertility in reverse outcross (RVOC): no infertility
